Reference: US20150218212A1, “FLUORINATED EPOXYKETONE-BASED TETRAPEPTIDE COMPOUNDS AND USES THEREOF AS PROTEASOME INHIBITORS” (FLUORINOV PHARMA INC., priority 2012, published 2015)

How the values were obtained:
Type in all cases: cell-based, human
T-47D = assay: NCI screening panel, T-47D (Breast Cancer)
Description: (§1) Representative compounds of Formula I were screened using the National Cancer Institute (NCI) screening panel, which consists of a panel of human tumor cell lines, representing leukemia, melanoma, and cancers of the lung, colon, ovary, breast, prostate and renal system.
(§2) After 24 h, two plates of each cell line are fixed in situ with TCA, to represent a measurement of the cell population for each cell line at the time of drug addition (Tz). Experimental drugs are solubilised in dimethyl sulfoxide at 400-fold the desired final maximum test concentration and stored frozen prior to use. At the time of drug addition, an aliquot of frozen concentrate is thawed and diluted to twice the desired final maximum test concentration with complete medium containing 50 μg/mL gentamicin. Additional four, 10-fold or ½ log serial dilutions are made to provide a total of five drug concentrations plus control. Aliquots of 100 μl of these different drug dilutions are added to the appropriate microtiter wells already containing 100 μl of medium, resulting in the required final drug concentrations.
(§3) Following drug addition, the plates are incubated for an additional 48 h at 37° C., 5% CO2, 95% air, and 100% relative humidity. For adherent cells, the assay is terminated by the addition of cold TCA (trichloroacetic acid). Cells are fixed in situ by the gentle addition of 50 μl of cold 50% (w/v) TCA (final concentration, 10% TCA) and incubated for 60 minutes at 4° C. The supernatant is discarded, and the plates are washed five times with tap water and air dried. Sulforhodamine B (SRB) solution (100 μl) at 0.4% (w/v) in 1% acetic acid is added to each well, and plates are incubated for 10 minutes at room temperature. After staining, unbound dye is removed by washing five times with 1% acetic acid and the plates are air dried. Bound stain is subsequently solubilised with 10 mM trizma base, and the absorbance is read on an automated plate reader at a wavelength of 515 nm. For suspension cells, the methodology is the same except that the assay is terminated by fixing settled cells at the bottom of the wells by gently adding 50 μl of 80% TCA (final concentration, 16% TCA). Using the seven absorbance measurements [time zero, (Tz), control growth, (C), and test growth in the presence of drug at the five concentration levels (Ti)], the percentage growth is calculated at each of the drug concentrations levels. Percentage growth inhibition is calculated as: [(Ti−Tz)/(C−Tz)]×100 for concentrations for which Ti>/=Tz and [(Ti−Tz)/Tz]×100 for concentrations for which Ti<Tz.
(§4) Three dose response parameters are calculated for each experimental agent. Growth inhibition of 50% (GI50) is calculated from [(Ti−Tz)/(C−Tz)]×100=50, which is the drug concentration resulting in a 50% reduction in the net protein increase (as measured by SRB staining) in control cells during the drug incubation. The drug concentration resulting in total growth inhibition (TGI) is calculated from Ti=Tz. The LC50 (concentration of drug resulting in a 50% reduction in the measured protein at the end of the drug treatment as compared to that at the beginning) indicating a net loss of cells following treatment is calculated from [(Ti−Tz)/Tz]×100=−50. Values are calculated for each of these three parameters if the level of activity is reached. However, if the effect is not reached or is exceeded, the value for that parameter is expressed as greater or less than the maximum or minimum concentration tested.

UO-31 = assay: NCI screening panel, UO-31 (Renal Cancer)
Description: as §1, §2, §3, §4

MDA-MB-468 = assay: NCI screening panel, MDA-MB-468 (Breast Cancer)
Description: as §1, §2, §3, §4

NCI-H226 = assay: NCI screening panel, NCI-H226 (Non-Small Cell Lung Cancer)
Description: as §1, §2, §3, §4

U251 = assay: NCI screening panel, U251 (CNS Cancer)
Description: as §1, §2, §3, §4

HCC-2998 = assay: NCI screening panel, HCC-2998 (Colon Cancer)
Description: as §1, §2, §3, §4

786-0 = assay: NCI screening panel, 786-0 (Renal Cancer)
Description: as §1, §2, §3, §4

SK-MEL-2 = assay: NCI screening panel, SK-MEL-2 (Melanoma)
Description: as §1, §2, §3, §4

SK-MEL-5 = assay: NCI screening panel, SK-MEL-5 (Melanoma)
Description: as §1, §2, §3, §4

DU-145 = assay: NCI screening panel, DU-145 (Prostate Cancer)
Description: as §1, §2, §3, §4

SMILES	Log10GI50 (T-47D)	Log10TGI50 (T-47D)	Log10GI50 (UO-31)	Log10LC50 (UO-31)	Log10TGI50 (UO-31)	Log10GI50 (MDA-MB-468)	Log10LC50 (MDA-MB-468)	Log10TGI50 (MDA-MB-468)	Log10GI50 (NCI-H226)	Log10LC50 (NCI-H226)	Log10TGI50 (NCI-H226)	Log10GI50 (U251)	Log10LC50 (U251)	Log10TGI50 (U251)	Log10GI50 (HCC-2998)	Log10LC50 (HCC-2998)	Log10TGI50 (HCC-2998)	Log10GI50 (786-0)	Log10LC50 (786-0)	Log10TGI50 (786-0)	other results
CC(C)C[C@H](NC(=O)[C@H](Cc1ccccc1)NC(=O)[C@H](COC(F)F)NC(=O)[C@H](COC(F)F)NC(=O)CN1CCOCC1)C(=O)[C@@]1(C)CO1 [Example 11, (2S)-2-[[(2S)-3-(difluoromethoxy)-2-[[(2S)-3-(difluoromethoxy)-2-[(2-morpholinoacetyl)-amino]propanoyl]amino]propanoyl]amino]-N-[(1S)-3-methyl-1-[(2R)-2-methyloxirane-2-carbonyl]butyl]-3-phenyl-propanamide]	−7.71	>−4.00	−6.17	−4.24	−5.47	−7.62	−4.67	−7.06	−7.77	−7.11	−7.44	−7.59	−4.04	−6.71	−7.66	−6.95	−7.33	−6.66	>−4.00	−5.63	Log10GI50 (SK-MEL-2): −7.48; Log10LC50 (SK-MEL-2): >−4.00; Log10TGI50 (SK-MEL-2): −6.68; Log10GI50 (SK-MEL-5): −7.45; Log10LC50 (SK-MEL-5): −6.23; Log10TGI50 (SK-MEL-5): −6.83; Log10GI50 (DU-145): −7.31; Log10LC50 (DU-145): >−4.00; Log10TGI50 (DU-145): −5.94
CC(C)C[C@H](NC(=O)[C@H](COC(F)F)NC(=O)[C@H](COC(F)F)NC(=O)[C@H](COC(F)F)NC(=O)CN1CCOCC1)C(=O)[C@@]1(C)CO1 [Example 17, (2S)-3-(difluoromethoxy)-N-[(1S)-1-(difluoromethoxymethyl)-2-[[(1S)-1-(difluoro-methoxymethyl)-2-[[(1S)-3-methyl-1-[(2R)-2-methyloxirane-2-carbonyl]butyl]amino]-2-oxo-ethyl]amino]-2-oxo-ethyl]-2-[(2-mor-pholinoacetyl)amino]-propanamide]	−7.10	−6.33	−5.40	−4.00	−4.65	−7.04	>−4.00	−6.17	−7.15	−6.14	−6.61	−7.26	−5.25	−6.32	−6.74	−6.19	−6.46	−5.99	>−4.00	−4.92	Log10LC50 (T-47D): >−4.00; Log10GI50 (SK-MEL-2): −7.27; Log10LC50 (SK-MEL-2): −5.76; Log10TGI50 (SK-MEL-2): −6.60; Log10GI50 (SK-MEL-5): −7.10; Log10LC50 (SK-MEL-5): −6.01; Log10TGI50 (SK-MEL-5): −6.53; Log10GI50 (DU-145): −7.07; Log10LC50 (DU-145): >−4.00; Log10TGI50 (DU-145): −4.84
